One may read the inhibition as the drop in the measured response relative to a control, in per cent.

The test system of experiment [1] is Jejunum. Kind of experiment: Spasmolytic activity in rabbit jejunum assessed as inhibition of K+-induced muscle contraction at 1 mg/mL after 30 mins. It counts as functional. The settings on record: Oryctolagus cuniculus, 0.5 h.
The test system of experiment [2] is Jejunum. Description: Spasmolytic activity in rabbit jejunum assessed as inhibition of calcium influx-mediated spontaneous muscle contraction at 1 mg/mL after 30 mins. Particulars: Oryctolagus cuniculus, 0.5 h. It counts as functional.

`COC(=O)[C@]12CCC(C)(C)C[C@@H]1C1=CC=C3[C@@]4(C)CC[C@H](OC(C)=O)C(C)(C)[C@@H]4CC[C@@]3(C)[C@]1(C)CC2` [METHYLACETYLEUCALYPTANOATE]: the results for the inhibition at 1000 µg/mL with Jejunum [1] and in the experiment with Jejunum [2] were 85.9% and 95.3%, respectively.

Turning to `COC(=O)[C@]12CCC(C)(C)C[C@@H]1C1=CC[C@@H]3[C@@]4(C)CC[C@H](OC(C)=O)C(C)(C)[C@@H]4CC[C@@]3(C)[C@]1(C)CC2` [METHYL ACETYL OLEANOLATE], the inhibition at 1000 µg/mL is 35.5% in the experiment on Jejunum [1] and 67.7% with Jejunum [2].

For the compound `CC1(C)CC[C@]2(C(=O)O)CC[C@]3(C)C(=CC=C4[C@@]5(C)CC[C@H](O)C(C)(C)[C@@H]5CC[C@]43C)[C@H]2C1` [EUCALYPTANOIC ACID], the inhibition at 1000 µg/mL in the experiment on Jejunum [1] came out at 31.1%; in the experiment with Jejunum [2], 58.2%.

These data come from ChEMBL document CHEMBL1137818, “Structure and spasmolytic activity of eucalyptanoic acid from Eucalyptus camaldulensis var. obtusa and synthesis of its active derivative from oleanolic acid” (2002).
